In test [1] the target is T1, wild-type BMX in PC3 cells (Homo sapiens, UniProt P51813).
T1 construct: endogenous in cells; host or cells: PC3 prostate cancer cells (wild-type, untransfected)
The experiment in a line: BMX degradation assay in PC3 cells (Western blot). The format is cell-based. Particulars: 10 μM; 24 h and 72 h; band intensity normalized to α-Tubulin. As to the method:
The cell proliferation depends on BMX kinase activity that was used to monitor the cellular activity of the compounds (IC50). […].  Fig. 5 (a) Intracellular target engagement in HEK293 cells transiently transfected with BMX expressing NanoLuc®-BMX fusion vector with Promega's NanoBRET™ TE Intracellular Kinase Assay. […] Band intensity was measured using ImageJ and normalized with α-Tubulin band intensity. […] Data are mean ± standard deviation obtained from at least three independent measurements (n = 3). See ESI ^† for additional data and analysis. […] | page 12: […]
degradation assay. Protein band intensity normalized with α-Tubulin band intensity and quantified using ImageJ. Data was obtained from at least three independent measurements […]
concentration against PC3 cells, plated on 6-well plates, a day after attachment. DMSO was used as a control vehicle. At 24 h and 72 h of incubation, cells were washed in 1X PBS and lysed in 100 µL RIPA Buffer (in house) supplemented with EDTA-free Protease Inhibitor Cocktail (Merk) and DNase I (Merk). The lysis procedure was performed by re-suspending cells continuously, followed by a incubation of 30 min on ice. BMX antibody (Abcam) and tubulin antibody (Cell signaling Technology) were used in the Western blot. Band intensity […]
Background: A western blot detects proteins with antibodies after separation by electrophoresis.

A further test addresses T2, BMX (Homo sapiens, UniProt P51813).
T2 sequence (P51813 1-675): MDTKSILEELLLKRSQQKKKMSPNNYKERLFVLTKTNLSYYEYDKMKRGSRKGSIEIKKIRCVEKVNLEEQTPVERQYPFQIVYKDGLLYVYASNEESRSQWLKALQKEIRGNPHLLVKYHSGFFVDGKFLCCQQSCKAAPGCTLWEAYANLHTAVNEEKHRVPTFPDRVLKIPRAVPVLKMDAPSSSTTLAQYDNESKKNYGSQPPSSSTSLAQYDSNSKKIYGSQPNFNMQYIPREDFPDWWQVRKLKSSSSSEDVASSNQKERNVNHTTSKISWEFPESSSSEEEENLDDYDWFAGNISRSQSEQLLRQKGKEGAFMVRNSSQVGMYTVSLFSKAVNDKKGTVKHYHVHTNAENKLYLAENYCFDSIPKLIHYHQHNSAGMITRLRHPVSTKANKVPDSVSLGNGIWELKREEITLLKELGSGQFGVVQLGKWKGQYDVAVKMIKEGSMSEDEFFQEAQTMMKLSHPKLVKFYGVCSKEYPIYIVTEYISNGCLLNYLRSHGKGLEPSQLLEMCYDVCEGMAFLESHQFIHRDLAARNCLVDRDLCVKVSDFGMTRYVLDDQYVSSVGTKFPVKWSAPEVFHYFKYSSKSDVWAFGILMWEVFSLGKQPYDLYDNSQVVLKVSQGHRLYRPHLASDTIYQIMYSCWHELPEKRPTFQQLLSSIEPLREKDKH
The experiment in a line: KINOMEscan binding. Particulars: read-out: % Ctrl BMX.

The target in the next test is ITK (Homo sapiens, UniProt Q08881). The experiment in a line: KINOMEscan binding. Particulars: read-out: % Ctrl ITK.
Another test concerns the target TEC (Homo sapiens, UniProt P42680). The experiment in a line: KINOMEscan binding. The conditions noted are these: read-out: % Ctrl TEC.
The next test addresses ERBB2 (Homo sapiens, UniProt P04626). The test can be described thus: KINOMEscan binding. Particulars: read-out: % Ctrl ERBB2.
Test [2] addresses JAK1(JH1domain-catalytic) (Homo sapiens, UniProt P23458). The experiment in a line: KINOMEscan binding. Particulars: read-out: % Ctrl JAK1(JH1domain-catalytic).
Method: (§1) Therefore, we included the whole TEC, EGFR and JAK family in our screening, and the Src family and Lkb1, which also have a cysteine within the same sequence alignment.
(§2) Kinome selectivity was performed with DiscoverX KINOMEscan™ technology.
Test [3] concerns the target JAK2(JH1domain-catalytic) (Homo sapiens, UniProt O60674). The experiment in a line: KINOMEscan binding. The conditions noted are these: read-out: % Ctrl JAK2(JH1domain-catalytic).
Method: (§3) Therefore, we included the whole TEC, EGFR and JAK family in our screening, and the Src family and Lkb1, which also have a cysteine within the same sequence alignment. We also included kinases involved in upstream (Src, FAK, PI3K, mTOR, PDK1) and downstream (Akt, PAK1, TAM) regulation of BMX signaling pathway and non-receptor tyrosine protein kinase Abl.
as §2
The target of test [4] is TYK2(JH1domain-catalytic) (Homo sapiens, UniProt P29597). The test can be described thus: KINOMEscan binding. Particulars: read-out: % Ctrl TYK2(JH1domain-catalytic).
Method: as §3, §2
In a further test the target is PTK2 (Homo sapiens, UniProt Q05397). The experiment in a line: KINOMEscan binding. The conditions noted are these: read-out: % Ctrl PTK2.
The next test has as its target SRC (Homo sapiens, UniProt P12931). The experiment in a line: KINOMEscan binding. Particulars: read-out: % Ctrl SRC.
For another test, the target named is BLK (Homo sapiens, UniProt P51451). The test can be described thus: KINOMEscan binding. Particulars: read-out: % Ctrl BLK.
A further test addresses HCK (Homo sapiens, UniProt P08631). The test can be described thus: KINOMEscan binding. Particulars: read-out: % Ctrl HCK.
The target in another test is LYN (Homo sapiens, UniProt P07948). The test can be described thus: KINOMEscan binding. The conditions noted are these: read-out: % Ctrl LYN.
The next test concerns the target MERTK (Homo sapiens, UniProt Q12866). The experiment in a line: KINOMEscan binding. The conditions noted are these: read-out: % Ctrl MERTK.
For a further test, the system named is LNCaP. The test can be described thus: Multi cell line growth assay (CellTiter-Glo, 72 h). In kind it is cell-based, human. Particulars: Homo sapiens, LNCaP, Prostate, ND = no growth inhibition observed within the concentrations tested. For orientation: Cellular ATP, detected with luciferase, serves as a proxy for viable cell number.
A further test relates to 22 RV1. The experiment in a line: Multi cell line growth assay (CellTiter-Glo, 72 h). The format is cell-based, human. Particulars: Homo sapiens, 22Rv1, Prostate, ND = no growth inhibition observed.
For the next test, the system named is PC3. The experiment in a line: Multi cell line growth assay (CellTiter-Glo, 72 h). The format is cell-based, human. The conditions noted are these: Homo sapiens, PC-3, Prostate, ND = no growth inhibition observed.
The subject of another test is U-87MG. The test can be described thus: Multi cell line growth assay (CellTiter-Glo, 72 h). In kind it is cell-based. Particulars: Homo sapiens, Brain, ND = no growth inhibition observed.
A further test has as its system SK-N-MC. The experiment in a line: Multi cell line growth assay (CellTiter-Glo, 72 h). In kind it is cell-based, human. Particulars: Homo sapiens, SK-N-MC, Brain, ND = no growth inhibition observed.
In another test the test system is RS4(11). The experiment in a line: Multi cell line growth assay (CellTiter-Glo, 72 h). In kind it is cell-based, human. The conditions noted are these: Homo sapiens, RS4-11, Lung (so in the source), ND = no growth inhibition observed.
The subject of the next test is DAUDI. The test can be described thus: Multi cell line growth assay (CellTiter-Glo, 72 h). The format is cell-based, human. Particulars: Homo sapiens, Daudi, Lymphoid, ND = no growth inhibition observed.

MERTK, sequence (Q12866 21-999): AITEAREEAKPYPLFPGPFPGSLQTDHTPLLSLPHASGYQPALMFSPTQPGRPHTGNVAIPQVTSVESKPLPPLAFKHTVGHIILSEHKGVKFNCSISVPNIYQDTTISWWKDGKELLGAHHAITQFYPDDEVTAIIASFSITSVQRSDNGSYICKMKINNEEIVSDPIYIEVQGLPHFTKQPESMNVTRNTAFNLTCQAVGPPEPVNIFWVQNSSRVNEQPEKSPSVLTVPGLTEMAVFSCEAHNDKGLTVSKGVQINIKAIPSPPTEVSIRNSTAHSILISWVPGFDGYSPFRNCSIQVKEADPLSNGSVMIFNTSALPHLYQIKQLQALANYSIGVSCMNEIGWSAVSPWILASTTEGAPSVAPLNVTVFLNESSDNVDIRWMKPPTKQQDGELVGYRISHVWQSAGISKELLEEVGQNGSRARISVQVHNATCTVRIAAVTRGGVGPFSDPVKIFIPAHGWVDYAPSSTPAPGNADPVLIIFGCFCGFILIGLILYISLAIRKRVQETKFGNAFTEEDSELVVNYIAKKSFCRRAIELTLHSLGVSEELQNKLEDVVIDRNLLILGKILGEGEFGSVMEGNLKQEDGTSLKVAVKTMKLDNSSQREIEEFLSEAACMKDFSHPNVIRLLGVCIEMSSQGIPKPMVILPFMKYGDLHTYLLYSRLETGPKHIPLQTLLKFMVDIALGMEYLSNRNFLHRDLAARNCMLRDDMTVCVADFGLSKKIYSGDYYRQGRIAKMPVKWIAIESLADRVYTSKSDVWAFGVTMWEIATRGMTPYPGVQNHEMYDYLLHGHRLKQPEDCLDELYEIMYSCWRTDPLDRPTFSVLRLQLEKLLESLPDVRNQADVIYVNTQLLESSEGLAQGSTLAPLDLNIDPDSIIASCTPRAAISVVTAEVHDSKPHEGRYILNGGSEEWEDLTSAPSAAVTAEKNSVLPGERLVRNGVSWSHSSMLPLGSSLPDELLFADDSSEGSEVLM
JAK1(JH1domain-catalytic), sequence (P23458 867-1154 limits assumed): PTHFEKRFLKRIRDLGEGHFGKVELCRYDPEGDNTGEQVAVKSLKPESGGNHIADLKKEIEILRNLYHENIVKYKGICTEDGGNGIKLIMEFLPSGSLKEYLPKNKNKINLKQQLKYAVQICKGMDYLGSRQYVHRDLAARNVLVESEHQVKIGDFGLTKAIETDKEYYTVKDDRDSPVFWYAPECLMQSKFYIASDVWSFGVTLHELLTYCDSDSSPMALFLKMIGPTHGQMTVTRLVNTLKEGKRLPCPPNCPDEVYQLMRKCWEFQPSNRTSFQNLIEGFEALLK
ITK, sequence (Q08881 whole entry): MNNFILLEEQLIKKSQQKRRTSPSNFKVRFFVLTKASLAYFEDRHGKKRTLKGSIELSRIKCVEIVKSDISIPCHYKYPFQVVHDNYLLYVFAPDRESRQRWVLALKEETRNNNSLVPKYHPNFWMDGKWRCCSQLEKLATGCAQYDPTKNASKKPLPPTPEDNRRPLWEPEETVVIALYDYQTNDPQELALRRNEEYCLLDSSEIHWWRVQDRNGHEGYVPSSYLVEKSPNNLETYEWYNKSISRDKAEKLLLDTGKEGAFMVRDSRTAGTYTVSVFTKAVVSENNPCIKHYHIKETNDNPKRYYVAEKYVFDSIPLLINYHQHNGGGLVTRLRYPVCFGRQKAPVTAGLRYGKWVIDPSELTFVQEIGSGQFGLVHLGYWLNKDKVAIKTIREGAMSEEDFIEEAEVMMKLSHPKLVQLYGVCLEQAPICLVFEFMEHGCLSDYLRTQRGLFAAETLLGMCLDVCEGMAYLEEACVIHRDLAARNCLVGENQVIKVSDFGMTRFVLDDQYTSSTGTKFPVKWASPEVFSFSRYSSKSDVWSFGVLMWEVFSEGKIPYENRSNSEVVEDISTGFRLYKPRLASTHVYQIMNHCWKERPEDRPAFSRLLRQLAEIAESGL
JAK2(JH1domain-catalytic), sequence (O60674 841-1132 limits assumed): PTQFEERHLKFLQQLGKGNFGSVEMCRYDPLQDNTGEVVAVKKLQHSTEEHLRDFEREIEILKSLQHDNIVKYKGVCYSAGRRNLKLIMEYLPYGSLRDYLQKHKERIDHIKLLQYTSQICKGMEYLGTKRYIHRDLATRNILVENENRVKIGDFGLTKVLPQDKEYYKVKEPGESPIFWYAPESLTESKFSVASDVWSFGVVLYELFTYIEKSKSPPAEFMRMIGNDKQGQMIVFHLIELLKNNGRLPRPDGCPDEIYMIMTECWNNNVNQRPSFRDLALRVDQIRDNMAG
PTK2, sequence (Q05397 whole entry): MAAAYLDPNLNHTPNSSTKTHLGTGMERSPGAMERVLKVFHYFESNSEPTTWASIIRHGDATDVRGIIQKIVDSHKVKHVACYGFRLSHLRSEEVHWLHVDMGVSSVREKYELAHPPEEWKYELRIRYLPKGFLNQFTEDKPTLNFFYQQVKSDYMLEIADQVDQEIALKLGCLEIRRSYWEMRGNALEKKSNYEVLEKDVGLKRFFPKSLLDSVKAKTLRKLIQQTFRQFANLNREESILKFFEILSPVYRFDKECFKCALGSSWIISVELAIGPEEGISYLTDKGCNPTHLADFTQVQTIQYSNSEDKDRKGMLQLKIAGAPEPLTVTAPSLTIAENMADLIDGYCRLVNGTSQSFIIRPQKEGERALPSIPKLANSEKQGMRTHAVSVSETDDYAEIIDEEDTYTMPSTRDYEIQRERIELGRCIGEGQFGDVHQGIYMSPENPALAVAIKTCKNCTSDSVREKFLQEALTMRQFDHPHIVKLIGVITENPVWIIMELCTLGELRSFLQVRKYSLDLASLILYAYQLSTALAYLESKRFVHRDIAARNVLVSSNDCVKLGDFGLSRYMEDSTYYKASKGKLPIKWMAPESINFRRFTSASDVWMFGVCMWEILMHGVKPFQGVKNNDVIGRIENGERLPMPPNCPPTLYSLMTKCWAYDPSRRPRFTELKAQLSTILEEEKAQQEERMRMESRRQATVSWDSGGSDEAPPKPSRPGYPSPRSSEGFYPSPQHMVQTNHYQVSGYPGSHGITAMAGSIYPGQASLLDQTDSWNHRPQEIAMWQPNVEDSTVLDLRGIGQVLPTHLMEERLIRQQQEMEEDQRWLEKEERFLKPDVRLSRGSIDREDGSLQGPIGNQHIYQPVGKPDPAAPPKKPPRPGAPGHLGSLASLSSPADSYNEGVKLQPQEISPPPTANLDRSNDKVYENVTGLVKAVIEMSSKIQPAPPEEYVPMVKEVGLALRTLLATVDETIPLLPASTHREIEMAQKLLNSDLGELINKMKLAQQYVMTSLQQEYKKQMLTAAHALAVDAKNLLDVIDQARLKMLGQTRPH
ERBB2, sequence (P04626 23-1255): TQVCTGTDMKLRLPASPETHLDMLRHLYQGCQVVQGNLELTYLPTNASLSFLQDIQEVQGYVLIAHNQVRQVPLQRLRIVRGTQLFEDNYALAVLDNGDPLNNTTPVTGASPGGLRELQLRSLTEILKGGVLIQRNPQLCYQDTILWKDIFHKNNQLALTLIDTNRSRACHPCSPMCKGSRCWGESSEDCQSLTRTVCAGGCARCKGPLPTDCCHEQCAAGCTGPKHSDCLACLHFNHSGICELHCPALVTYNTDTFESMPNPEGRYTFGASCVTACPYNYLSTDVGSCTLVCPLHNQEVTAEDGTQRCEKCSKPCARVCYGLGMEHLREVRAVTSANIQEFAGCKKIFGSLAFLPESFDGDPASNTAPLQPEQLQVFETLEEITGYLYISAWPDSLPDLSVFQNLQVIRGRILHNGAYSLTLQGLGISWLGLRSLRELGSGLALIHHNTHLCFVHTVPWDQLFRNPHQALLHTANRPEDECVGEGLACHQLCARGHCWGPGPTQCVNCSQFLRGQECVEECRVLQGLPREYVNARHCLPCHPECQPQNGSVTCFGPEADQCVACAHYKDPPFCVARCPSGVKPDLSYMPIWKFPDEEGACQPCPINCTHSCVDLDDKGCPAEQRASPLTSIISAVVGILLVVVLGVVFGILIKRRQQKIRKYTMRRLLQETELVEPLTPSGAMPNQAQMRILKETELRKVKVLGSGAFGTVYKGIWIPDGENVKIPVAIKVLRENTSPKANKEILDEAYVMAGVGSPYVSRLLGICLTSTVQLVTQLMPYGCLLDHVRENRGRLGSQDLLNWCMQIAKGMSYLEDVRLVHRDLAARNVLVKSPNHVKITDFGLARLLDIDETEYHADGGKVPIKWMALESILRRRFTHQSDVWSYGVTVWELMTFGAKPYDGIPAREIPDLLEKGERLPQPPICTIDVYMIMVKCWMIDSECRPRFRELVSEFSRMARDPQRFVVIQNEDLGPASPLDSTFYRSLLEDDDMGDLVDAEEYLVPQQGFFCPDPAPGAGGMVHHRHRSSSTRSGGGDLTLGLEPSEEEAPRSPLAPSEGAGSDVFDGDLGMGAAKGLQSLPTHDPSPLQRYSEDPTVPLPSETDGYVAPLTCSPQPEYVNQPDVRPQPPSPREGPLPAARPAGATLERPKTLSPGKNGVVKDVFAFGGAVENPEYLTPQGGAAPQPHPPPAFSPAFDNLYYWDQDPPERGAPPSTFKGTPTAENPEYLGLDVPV
TYK2(JH1domain-catalytic), sequence (P29597 889-1187 limits assumed): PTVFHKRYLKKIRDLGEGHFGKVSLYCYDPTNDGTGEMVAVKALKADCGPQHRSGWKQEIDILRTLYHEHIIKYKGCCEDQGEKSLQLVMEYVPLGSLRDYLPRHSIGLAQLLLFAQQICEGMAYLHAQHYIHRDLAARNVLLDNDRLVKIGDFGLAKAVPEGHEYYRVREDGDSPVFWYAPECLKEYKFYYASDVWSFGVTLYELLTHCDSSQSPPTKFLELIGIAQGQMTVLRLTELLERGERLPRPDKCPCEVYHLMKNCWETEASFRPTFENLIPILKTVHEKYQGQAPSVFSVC
Method for BLK: as §1, §2
Method for ERBB2: as §1, §2
Method for HCK: as §1, §2
Method for ITK: as §1, §2
Method for LYN: as §3, §2
Method for MERTK: as §3, §2
Method for PTK2: as §3, §2
Method for SRC: as §3, §2
Method for TEC: as §1, §2

Turning to `C=CC(=O)Nc1cc(C)cc(-n2c(=O)ccc3cnc4cc(-c5ccc(NS(C)(=O)=O)cc5)ccc4c32)c1` [JS25], in test [1], the “degradation of BMX protein” value is given as “induce degradation of wild-type BMX in PC3 cells”. The remaining binding at 1 µM at BMX worked out at 1.3%; at ITK it was 4.7%; at TEC, 0.4%; at ERBB2, 89%; in test [2] it was 93%; in test [3], 81%. The remaining binding at 1 µM in [4] is 100%; on PTK2, 93%; at SRC it was 92%; at BLK, 16%; on HCK, 95%; at LYN it was 100%. Further, the remaining binding at 1 µM on MERTK is 89%.
For orientation: GI50 means the concentration giving 50% growth inhibition. In the case of `C=CC(=O)Nc1cc(-n2c(=O)ccc3cnc4cc(-c5ccc(NS(C)(=O)=O)cc5)ccc4c32)ccc1C` [JS24], the GI50 with LNCaP worked out at 4.4 µM; with 22 RV1 it was 6.66 ± 0.09 µM; in the test on PC3 it was 4.8 µM; in the test on U-87MG, 5.04 ± 0.01 µM; with SK-N-MC, 8.53 ± 0.44 µM; with RS4(11) it was 2.09 µM. In the test with DAUDI, this molecule had a GI50 of 1.27 ± 0.05 µM.

Source of the values: article PMC8341910, “Structural and biophysical insights into the mode of covalent binding of rationally designed potent BMX inhibitors” (RSC Chemical Biology, 2020).
